Measured values as given in PMC6931042 (Bioorganic chemistry, 2018).
Several values for one entry are separate records, joined by “and”; a condition that tells them apart may be missing. Equal entries are not always repeated. Where two headings read alike, the source gives them in different places.

Assays:
HL-60(TB) = test: NCI in vitro five dose anticancer assay; type: cell-based, human
MOLT-4 = test: NCI in vitro five dose anticancer assay; type: cell-based, human
RPMI-8226 = test: NCI in vitro five dose anticancer assay; type: cell-based, human
SR = test: NCI in vitro five dose anticancer assay; type: cell-based, human
EKVX = test: NCI in vitro five dose anticancer assay; type: cell-based, human
HOP-62 = test: NCI in vitro five dose anticancer assay; type: cell-based, human
HOP-92 = test: NCI in vitro five dose anticancer assay; type: cell-based, human
NCI-H226 = test: NCI in vitro five dose anticancer assay; type: cell-based, human
NCI-H23 = test: NCI in vitro five dose anticancer assay; type: cell-based, human
NCI-H322M = test: NCI in vitro five dose anticancer assay; type: cell-based, human
COLO 205 = test: NCI in vitro five dose anticancer assay; type: cell-based, human
KM12 = test: NCI in vitro five dose anticancer assay; type: cell-based, human
SW-620 = test: NCI in vitro five dose anticancer assay; type: cell-based, human
SF-539 = test: NCI in vitro five dose anticancer assay; type: cell-based, human
SNB-75 = test: NCI in vitro five dose anticancer assay; type: cell-based, human
U251 = test: NCI in vitro five dose anticancer assay; type: cell-based, human
M14 = test: NCI in vitro five dose anticancer assay; type: cell-based, human
MDA-MB-435 = test: NCI in vitro five dose anticancer assay; type: cell-based, human
UACC-62 = test: NCI in vitro five dose anticancer assay; type: cell-based, human
IGROV1 = test: NCI in vitro five dose anticancer assay; type: cell-based, human
OVCAR-3 = test: NCI in vitro five dose anticancer assay; type: cell-based, human
OVCAR-4 = test: NCI in vitro five dose anticancer assay; type: cell-based, human
OVCAR-5 = test: NCI in vitro five dose anticancer assay; type: cell-based, human
OVCAR-8 = test: NCI in vitro five dose anticancer assay; type: cell-based, human
NCI/ADR-RES = test: NCI in vitro five dose anticancer assay; type: cell-based, human
SK-OV-3 = test: NCI in vitro five dose anticancer assay; type: cell-based, human
A498 = test: NCI in vitro five dose anticancer assay; type: cell-based, human
ACHN = test: NCI in vitro five dose anticancer assay; type: cell-based, human
RXF 393 = test: NCI in vitro five dose anticancer assay; type: cell-based, human
SN12C = test: NCI in vitro five dose anticancer assay; type: cell-based, human
TK-10 = test: NCI in vitro five dose anticancer assay; type: cell-based, human
UO-31 = test: NCI in vitro five dose anticancer assay; type: cell-based, human
HS 578T = test: NCI in vitro five dose anticancer assay; type: cell-based, human
BT-549 = test: NCI in vitro five dose anticancer assay; type: cell-based, human
MDA-MB-468 = test: NCI in vitro five dose anticancer assay; type: cell-based, human
A549 cells [1] = test: Cell cycle analysis by flow cytometry; type: cell-based, human; details: 24 h
K-562 cells [2] = test: Cell cycle analysis by flow cytometry; type: cell-based, human; details: 24 h
A549 cells [3] = test: Apoptosis, annexin V-FITC/PI flow cytometry; type: cell-based, human; details: for percentage of apoptotic cells: 48 h; for proportion of apoptotic cells compared to control: 1, 3, or 6 μM, 24 h, data not shown
K-562 cells [4] = test: Apoptosis, annexin V-FITC/PI flow cytometry; type: cell-based, human; details: 24 h
PI3K-γ = PI3K-γ (Homo sapiens, UniProt P48736); test: PI3K biochemical assay
[5] = test system: p53, p21, cyclin B1 and Cdc2 in K-562 cells; test: Western blotting, p53 and cell cycle regulators; type: cell-based, human; details: 1, 3 and 6 μM, western blot; for expression of Cdc2 / expression of cyclin B1 / expression of p21: dose dependent
[6] = test system: Bax and cleaved caspases (3, 8, and 9) in K-562 cells; test: Western blotting, apoptosis markers; type: cell-based, human; details: 24 h, 1, 3 and 6 μM, western blot; for levels of Bax / levels of cleaved caspase 3 / levels of cleaved caspase 9: dose-dependent
[7] = test system: chronic myeloid leukemia K-562; test: Trypan blue exclusion cytotoxicity assay
PI3K-α = PI3K-α (Homo sapiens, UniProt P42336); test: PI3K biochemical assay
PI3K-β = PI3K-β (Homo sapiens, UniProt P42338); test: PI3K biochemical assay
PI3K-δ = PI3K-δ (Homo sapiens, UniProt O00329); test: PI3K biochemical assay
[8] = Non-small cell lung cancer, five dose assay
[9] = Ovarian cancer, five dose assay
[10] = read-out: K-562 (IC50 μM), trypan blue exclusion, 24 h, mean ± SD

Chain of PI3K-γ (P48736 whole entry): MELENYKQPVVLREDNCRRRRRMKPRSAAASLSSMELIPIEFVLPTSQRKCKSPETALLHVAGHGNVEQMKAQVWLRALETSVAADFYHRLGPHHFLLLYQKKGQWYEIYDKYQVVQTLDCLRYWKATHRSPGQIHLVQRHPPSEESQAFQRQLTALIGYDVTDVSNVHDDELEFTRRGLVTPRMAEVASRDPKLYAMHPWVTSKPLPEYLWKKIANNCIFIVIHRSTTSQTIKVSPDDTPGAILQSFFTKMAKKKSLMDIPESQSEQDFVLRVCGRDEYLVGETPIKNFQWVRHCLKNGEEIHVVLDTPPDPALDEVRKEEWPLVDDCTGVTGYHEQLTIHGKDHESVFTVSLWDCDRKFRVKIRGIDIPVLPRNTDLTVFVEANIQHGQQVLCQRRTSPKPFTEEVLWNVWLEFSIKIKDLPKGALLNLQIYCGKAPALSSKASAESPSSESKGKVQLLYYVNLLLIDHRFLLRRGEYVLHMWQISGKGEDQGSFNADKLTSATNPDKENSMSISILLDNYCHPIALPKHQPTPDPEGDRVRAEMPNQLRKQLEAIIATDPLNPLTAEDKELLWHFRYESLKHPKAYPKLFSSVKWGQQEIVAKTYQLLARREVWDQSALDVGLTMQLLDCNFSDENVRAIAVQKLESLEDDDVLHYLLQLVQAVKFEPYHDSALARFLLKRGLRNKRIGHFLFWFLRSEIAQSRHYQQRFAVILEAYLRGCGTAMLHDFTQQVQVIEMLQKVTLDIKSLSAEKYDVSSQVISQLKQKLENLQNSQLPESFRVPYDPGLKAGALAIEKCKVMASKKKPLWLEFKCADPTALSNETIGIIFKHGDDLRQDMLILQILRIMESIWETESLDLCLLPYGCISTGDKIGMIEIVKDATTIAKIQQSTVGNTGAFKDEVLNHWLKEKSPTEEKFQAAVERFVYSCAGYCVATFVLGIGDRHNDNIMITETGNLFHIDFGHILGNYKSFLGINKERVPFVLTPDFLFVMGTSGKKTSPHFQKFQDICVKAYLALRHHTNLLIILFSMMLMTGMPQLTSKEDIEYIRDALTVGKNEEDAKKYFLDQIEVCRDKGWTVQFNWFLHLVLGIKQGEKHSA
Chain of PI3K-α (P42336 whole entry): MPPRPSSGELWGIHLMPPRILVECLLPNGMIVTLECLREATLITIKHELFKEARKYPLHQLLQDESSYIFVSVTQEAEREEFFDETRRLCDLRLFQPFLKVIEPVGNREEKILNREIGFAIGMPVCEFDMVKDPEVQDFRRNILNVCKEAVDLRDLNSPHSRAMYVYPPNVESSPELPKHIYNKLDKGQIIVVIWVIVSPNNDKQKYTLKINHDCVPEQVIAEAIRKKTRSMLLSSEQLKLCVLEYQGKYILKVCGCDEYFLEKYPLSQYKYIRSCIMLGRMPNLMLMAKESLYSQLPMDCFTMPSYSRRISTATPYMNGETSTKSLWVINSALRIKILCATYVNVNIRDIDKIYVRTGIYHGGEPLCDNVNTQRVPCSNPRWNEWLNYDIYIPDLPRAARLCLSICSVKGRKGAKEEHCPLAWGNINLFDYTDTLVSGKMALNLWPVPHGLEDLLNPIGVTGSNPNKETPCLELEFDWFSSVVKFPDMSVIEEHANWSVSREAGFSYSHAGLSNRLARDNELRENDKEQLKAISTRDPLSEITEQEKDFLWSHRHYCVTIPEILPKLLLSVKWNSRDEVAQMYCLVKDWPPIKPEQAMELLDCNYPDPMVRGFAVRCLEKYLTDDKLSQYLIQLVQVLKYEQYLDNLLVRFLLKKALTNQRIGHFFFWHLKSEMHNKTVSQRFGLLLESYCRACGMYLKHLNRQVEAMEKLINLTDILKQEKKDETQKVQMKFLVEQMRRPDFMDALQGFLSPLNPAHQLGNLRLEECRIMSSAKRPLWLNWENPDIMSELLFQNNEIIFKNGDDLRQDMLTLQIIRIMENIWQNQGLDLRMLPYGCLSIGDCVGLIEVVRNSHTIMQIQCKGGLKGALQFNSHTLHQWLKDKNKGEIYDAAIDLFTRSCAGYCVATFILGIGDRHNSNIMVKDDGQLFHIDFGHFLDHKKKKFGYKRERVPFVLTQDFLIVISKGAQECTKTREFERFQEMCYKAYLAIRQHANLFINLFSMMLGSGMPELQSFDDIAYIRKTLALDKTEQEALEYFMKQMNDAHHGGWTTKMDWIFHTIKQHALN
Chain of PI3K-α (P27986 whole entry partner): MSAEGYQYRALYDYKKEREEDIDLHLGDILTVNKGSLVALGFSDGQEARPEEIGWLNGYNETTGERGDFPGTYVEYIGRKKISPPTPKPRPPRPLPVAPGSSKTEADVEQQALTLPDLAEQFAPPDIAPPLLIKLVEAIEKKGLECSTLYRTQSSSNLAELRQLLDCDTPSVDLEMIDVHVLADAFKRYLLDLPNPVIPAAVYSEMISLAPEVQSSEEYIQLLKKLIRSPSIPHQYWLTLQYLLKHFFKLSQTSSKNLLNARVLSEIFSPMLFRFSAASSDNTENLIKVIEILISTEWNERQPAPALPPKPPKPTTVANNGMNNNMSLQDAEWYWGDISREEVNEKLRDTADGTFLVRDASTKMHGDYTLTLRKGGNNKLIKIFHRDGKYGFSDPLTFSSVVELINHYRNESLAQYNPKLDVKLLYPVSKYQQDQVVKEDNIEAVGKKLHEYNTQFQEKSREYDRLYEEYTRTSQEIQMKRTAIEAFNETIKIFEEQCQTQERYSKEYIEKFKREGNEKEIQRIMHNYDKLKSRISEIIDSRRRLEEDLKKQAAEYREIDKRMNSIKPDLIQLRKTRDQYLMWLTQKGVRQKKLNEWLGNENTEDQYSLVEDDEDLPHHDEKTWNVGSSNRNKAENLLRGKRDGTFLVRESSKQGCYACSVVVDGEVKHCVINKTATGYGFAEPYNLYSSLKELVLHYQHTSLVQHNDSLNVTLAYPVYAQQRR
Chain of PI3K-δ (O00329 whole entry): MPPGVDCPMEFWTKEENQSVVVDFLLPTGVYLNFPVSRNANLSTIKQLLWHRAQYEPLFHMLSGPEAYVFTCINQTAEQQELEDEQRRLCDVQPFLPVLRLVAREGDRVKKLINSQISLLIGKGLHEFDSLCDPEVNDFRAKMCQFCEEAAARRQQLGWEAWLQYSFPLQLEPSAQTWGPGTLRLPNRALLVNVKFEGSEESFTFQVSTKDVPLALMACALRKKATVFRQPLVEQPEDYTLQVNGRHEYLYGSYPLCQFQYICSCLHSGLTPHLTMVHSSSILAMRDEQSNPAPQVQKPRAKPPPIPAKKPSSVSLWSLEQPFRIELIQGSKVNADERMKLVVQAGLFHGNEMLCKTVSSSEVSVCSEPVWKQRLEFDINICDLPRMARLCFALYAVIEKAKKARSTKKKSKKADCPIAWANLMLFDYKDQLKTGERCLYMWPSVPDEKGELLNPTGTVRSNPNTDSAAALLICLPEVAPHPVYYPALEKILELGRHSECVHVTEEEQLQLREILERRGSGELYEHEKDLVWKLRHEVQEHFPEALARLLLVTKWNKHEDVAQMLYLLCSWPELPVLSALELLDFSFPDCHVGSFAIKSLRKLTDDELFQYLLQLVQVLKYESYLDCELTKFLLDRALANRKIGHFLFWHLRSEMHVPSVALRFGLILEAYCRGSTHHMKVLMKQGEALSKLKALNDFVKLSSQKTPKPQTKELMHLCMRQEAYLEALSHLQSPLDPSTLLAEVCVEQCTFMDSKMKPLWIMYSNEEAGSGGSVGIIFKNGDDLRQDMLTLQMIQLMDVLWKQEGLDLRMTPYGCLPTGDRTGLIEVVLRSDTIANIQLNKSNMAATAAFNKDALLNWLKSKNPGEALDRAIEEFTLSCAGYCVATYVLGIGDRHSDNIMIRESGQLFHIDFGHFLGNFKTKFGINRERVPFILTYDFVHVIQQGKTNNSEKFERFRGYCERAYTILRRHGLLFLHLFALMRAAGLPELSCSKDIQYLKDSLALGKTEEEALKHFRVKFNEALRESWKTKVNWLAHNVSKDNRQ
Chain of PI3K-δ (P27986 whole entry partner): as the sequence (P27986 whole entry partner) above
Chain of PI3K-β (P42338 whole entry): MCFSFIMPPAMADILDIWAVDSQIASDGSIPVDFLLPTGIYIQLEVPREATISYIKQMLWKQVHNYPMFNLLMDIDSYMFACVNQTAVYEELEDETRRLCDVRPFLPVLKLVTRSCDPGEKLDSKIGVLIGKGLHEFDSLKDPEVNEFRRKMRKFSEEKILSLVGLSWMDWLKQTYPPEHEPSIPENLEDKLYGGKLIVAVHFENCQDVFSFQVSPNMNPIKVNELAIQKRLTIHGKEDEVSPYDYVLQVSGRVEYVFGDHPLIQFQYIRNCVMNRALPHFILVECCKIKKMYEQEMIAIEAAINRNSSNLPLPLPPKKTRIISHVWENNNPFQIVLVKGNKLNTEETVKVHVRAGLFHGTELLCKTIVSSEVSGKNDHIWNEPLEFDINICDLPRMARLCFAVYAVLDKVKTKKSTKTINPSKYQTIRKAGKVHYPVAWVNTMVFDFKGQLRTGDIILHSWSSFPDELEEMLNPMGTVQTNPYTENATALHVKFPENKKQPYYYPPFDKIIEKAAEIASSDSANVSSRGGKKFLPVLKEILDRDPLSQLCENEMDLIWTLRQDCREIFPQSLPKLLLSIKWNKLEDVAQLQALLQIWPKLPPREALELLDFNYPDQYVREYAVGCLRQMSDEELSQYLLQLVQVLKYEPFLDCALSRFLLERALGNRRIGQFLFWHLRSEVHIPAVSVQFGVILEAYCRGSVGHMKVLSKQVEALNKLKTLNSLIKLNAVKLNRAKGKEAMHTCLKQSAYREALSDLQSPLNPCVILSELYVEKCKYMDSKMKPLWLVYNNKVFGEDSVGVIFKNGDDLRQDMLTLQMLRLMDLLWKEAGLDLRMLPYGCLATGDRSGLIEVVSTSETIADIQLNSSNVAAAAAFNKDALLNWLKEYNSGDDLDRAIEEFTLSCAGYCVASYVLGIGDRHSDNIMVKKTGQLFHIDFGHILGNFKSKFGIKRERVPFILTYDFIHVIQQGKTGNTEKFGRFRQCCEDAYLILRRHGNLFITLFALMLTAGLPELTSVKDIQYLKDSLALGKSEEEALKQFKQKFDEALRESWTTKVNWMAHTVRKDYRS
Chain of PI3K-β (P27986 whole entry partner): as the sequence (P27986 whole entry partner) above

COc1ccc(-c2cc(C(=O)NN=C(/C=C\c3ccc(Cl)cc3)c3ccc(N)cc3)c3ccccc3n2)cc1 [Compound 9i, N’-((Z)-1-(4-Aminophenyl)-3-(4-chlorophenyl)allylidene)-2-(4-methoxphenyl)quinoline-4-carbohydrazide]
GI50 (HL-60(TB); Leukemia, HL-60(TB), five dose assay): 2540 nM | GI50 (MOLT-4; Leukemia, five dose assay): 3300 nM | GI50 (RPMI-8226; Leukemia, five dose assay): 3860 nM | GI50 (SR; Leukemia, five dose assay): 595 nM | GI50 (EKVX; [8]): 3780 nM | GI50 (HOP-62; [8]): 3210 nM | GI50 (HOP-92; [8]): 1920 nM | GI50 (NCI-H226; [8]): 7540 nM | GI50 (NCI-H23; [8]): 3140 nM | GI50 (NCI-H322M; [8]): 6000 nM | GI50 (COLO 205; Colon cancer, five dose assay): 1990 nM | GI50 (KM12; Colon cancer, five dose assay): 1150 nM | GI50 (SW-620; Colon cancer, five dose assay): 1240 nM | GI50 (SF-539; CNS cancer, five dose assay): 1410 nM | GI50 (SNB-75; CNS cancer, five dose assay): 371 nM | GI50 (U251; CNS cancer, U251, five dose assay): 2180 nM | GI50 (M14; Melanoma, five dose assay): 1160 nM | GI50 (MDA-MB-435; Melanoma, five dose assay): 305 nM | GI50 (UACC-62; Melanoma, five dose assay): 556 nM | GI50 (IGROV1; Ovarian cancer, IGROV1, five dose assay): 4980 nM | GI50 (OVCAR-3; [9]): 462 nM | GI50 (OVCAR-4; [9]): 1820 nM | GI50 (OVCAR-5; [9]): 5510 nM | GI50 (OVCAR-8; [9]): 4160 nM | GI50 (NCI/ADR-RES; [9]): 519 nM | GI50 (SK-OV-3; [9]): 3320 nM | GI50 (A498; Renal cancer, five dose assay): 375 nM | GI50 (ACHN; Renal cancer, five dose assay): 1470 nM | GI50 (RXF 393; Renal cancer, five dose assay): 698 nM | GI50 (SN12C; Renal cancer, five dose assay): 4270 nM | GI50 (TK-10; Renal cancer, five dose assay): 52300 nM | GI50 (UO-31; Renal cancer, five dose assay): 1550 nM | GI50 (HS 578T; Breast cancer, HS 578T, five dose assay): 1050 nM | GI50 (BT-549; Breast cancer, five dose assay): 2040 nM | GI50 (MDA-MB-468; Breast cancer, five dose assay): 2950 nM | percentage of cells in the G2/M phase (A549 cells [1]; 1 μM): 11% | percentage of cells in the G2/M phase (A549 cells [1]; 3 μM): 61.2% | percentage of cells in the G2/M phase (A549 cells [1]; 6 μM): 76.2% | percentage of cells in the G2/M phase (K-562 cells [2]; 1 μM): 2.95% | percentage of cells in the G2/M phase (K-562 cells [2]; 3 μM): 30.7% | percentage of cells in the G2/M phase (K-562 cells [2]; 6 μM): 49.3% | percentage of apoptotic cells (A549 cells [3]; 1 μM): 13.21% | percentage of apoptotic cells (A549 cells [3]; 3 μM): 22.73% | percentage of apoptotic cells (A549 cells [3]; 6 μM): 35.9% | proportion of apoptotic cells compared to control (A549 cells [3]): did not result in changes | percentage of apoptotic cells (K-562 cells [4]; 1 μM): 25.79% | percentage of apoptotic cells (K-562 cells [4]; 3 μM): 46.2% | percentage of apoptotic cells (K-562 cells [4]; 6 μM): 46.6% | IC50 (PI3K-γ; read-out: IC50 (nM) PI3K-γ, ADP-Glo, ATP 10 μM): 52 nM | expression of non-functional p53 [5]: no effect | expression of Cdc2 [5]: attenuated | expression of cyclin B1 [5]: attenuated | expression of p21 [5]: significantly induced | levels of cleaved caspase 8 [6]: not change | levels of Bax [6]: increased | levels of cleaved caspase 3 [6]: increased | levels of cleaved caspase 9 [6]: increased | IC50 [7, 10]: 1.9 µM and 1.91 µM | IC50 (PI3K-α; read-out: IC50 (nM) PI3K-α, ADP-Glo, ATP 10 μM): 248 nM | IC50 (PI3K-β; read-out: IC50 (nM) PI3K-β, ADP-Glo, ATP 30 μM): 296 nM | IC50 (PI3K-δ; read-out: IC50 (nM) PI3K-δ, ADP-Glo, ATP 10 μM): 438 nM

Cc1ccc(-c2cc(C(=O)NN=C(/C=C\c3ccc(Cl)cc3)c3ccc(N)cc3)c3ccccc3n2)cc1 [Compound 9j, N’-((Z)-1-(4-Aminophenyl)-3-(4-chlorophenyl)allylidene)-2-(4-methylphenyl)quinoline-4-carbohydrazide]
GI50 (HL-60(TB); Homo sapiens, HL-60): 3490 nM | GI50 (MOLT-4; Homo sapiens): 3230 nM | GI50 (RPMI-8226; Homo sapiens): 4100 nM | GI50 (SR; Homo sapiens): 3290 nM | GI50 (EKVX; Homo sapiens): 3990 nM | GI50 (HOP-62; Homo sapiens): 4620 nM | GI50 (HOP-92; Homo sapiens): 4100 nM | GI50 (NCI-H226; Homo sapiens): 6470 nM | GI50 (NCI-H23; Homo sapiens): 5020 nM | GI50 (NCI-H322M; Homo sapiens): 4730 nM | GI50 (COLO 205; Homo sapiens): 2800 nM | GI50 (KM12; Homo sapiens): 3460 nM | GI50 (SW-620; Homo sapiens): 4240 nM | GI50 (SF-539; Homo sapiens): 2430 nM | GI50 (SNB-75; Homo sapiens): 1410 nM | GI50 (U251; Homo sapiens, U-251): 4510 nM | GI50 (M14; Homo sapiens): 2540 nM | GI50 (MDA-MB-435; Homo sapiens): 1000 nM | GI50 (UACC-62; Homo sapiens): 2060 nM | GI50 (IGROV1; Homo sapiens, IGROV-1): 6480 nM | GI50 (OVCAR-3; Homo sapiens): 2980 nM | GI50 (OVCAR-4; Homo sapiens): 4710 nM | GI50 (OVCAR-5; Homo sapiens): 8430 nM | GI50 (OVCAR-8; Homo sapiens): 5250 nM | GI50 (NCI/ADR-RES; Homo sapiens): 2540 nM | GI50 (SK-OV-3; Homo sapiens): 4940 nM | GI50 (A498; Homo sapiens): 1640 nM | GI50 (ACHN; Homo sapiens): 4190 nM | GI50 (RXF 393; Homo sapiens): 1630 nM | GI50 (SN12C; Homo sapiens): 6840 nM | GI50 (TK-10; Homo sapiens): 8510 nM | GI50 (UO-31; Homo sapiens): 2200 nM | GI50 (HS 578T; Homo sapiens, Hs-578T): 4680 nM | GI50 (BT-549; Homo sapiens): 3920 nM | GI50 (MDA-MB-468; Homo sapiens): 4910 nM | percentage of cells in the G2/M phase (A549 cells [1]; 1 μM): 6.22% | percentage of cells in the G2/M phase (A549 cells [1]; 3 μM): 15.8% | percentage of cells in the G2/M phase (A549 cells [1]; 6 μM): 59.6% | percentage of cells in the G2/M phase (K-562 cells [2]; 1 μM): 5.1% | percentage of cells in the G2/M phase (K-562 cells [2]; 3 μM): 16.6% | percentage of cells in the G2/M phase (K-562 cells [2]; 6 μM): 41.7% | percentage of apoptotic cells (A549 cells [3]; 1 μM): 14.68% | percentage of apoptotic cells (A549 cells [3]; 3 μM): 14.07% | percentage of apoptotic cells (A549 cells [3]; 6 μM): 28.1% | proportion of apoptotic cells compared to control (A549 cells [3]): did not result in changes | percentage of apoptotic cells (K-562 cells [4]; 1 μM): 16.65% | percentage of apoptotic cells (K-562 cells [4]; 3 μM): 39.4% | percentage of apoptotic cells (K-562 cells [4]; 6 μM): 47.1% | IC50 (PI3K-γ): 197 nM | expression of non-functional p53 [5]: no effect | expression of Cdc2 [5]: attenuated | expression of cyclin B1 [5]: attenuated | expression of p21 [5]: significantly induced | levels of cleaved caspase 8 [6]: not change | levels of Bax [6]: increased | levels of cleaved caspase 3 [6]: increased | levels of cleaved caspase 9 [6]: increased | IC50 ([7]; Homo sapiens, K562, 24 h, read-out: K-562 (IC50 μM), trypan blue exclusion, mean ± SD): 2.7 µM | IC50 [7, 10]: 2.67 ± 0.27 µM | IC50 (PI3K-α): 271 nM | IC50 (PI3K-β): 360 nM | IC50 (PI3K-δ): 473 nM
